Among the data in patent US20250353842A1, “BICYCLIC AMINE CDK12 INHIBITORS” (Incyte Corporation, priority 2022, published 2025) are IC50 values, retold here.

SMILES strings stand for the structures. A value given as a limit tells only on which side of the number the result lay.

Sequence of CDK12 complexed with Cyclin K (Q9NYV4 whole entry): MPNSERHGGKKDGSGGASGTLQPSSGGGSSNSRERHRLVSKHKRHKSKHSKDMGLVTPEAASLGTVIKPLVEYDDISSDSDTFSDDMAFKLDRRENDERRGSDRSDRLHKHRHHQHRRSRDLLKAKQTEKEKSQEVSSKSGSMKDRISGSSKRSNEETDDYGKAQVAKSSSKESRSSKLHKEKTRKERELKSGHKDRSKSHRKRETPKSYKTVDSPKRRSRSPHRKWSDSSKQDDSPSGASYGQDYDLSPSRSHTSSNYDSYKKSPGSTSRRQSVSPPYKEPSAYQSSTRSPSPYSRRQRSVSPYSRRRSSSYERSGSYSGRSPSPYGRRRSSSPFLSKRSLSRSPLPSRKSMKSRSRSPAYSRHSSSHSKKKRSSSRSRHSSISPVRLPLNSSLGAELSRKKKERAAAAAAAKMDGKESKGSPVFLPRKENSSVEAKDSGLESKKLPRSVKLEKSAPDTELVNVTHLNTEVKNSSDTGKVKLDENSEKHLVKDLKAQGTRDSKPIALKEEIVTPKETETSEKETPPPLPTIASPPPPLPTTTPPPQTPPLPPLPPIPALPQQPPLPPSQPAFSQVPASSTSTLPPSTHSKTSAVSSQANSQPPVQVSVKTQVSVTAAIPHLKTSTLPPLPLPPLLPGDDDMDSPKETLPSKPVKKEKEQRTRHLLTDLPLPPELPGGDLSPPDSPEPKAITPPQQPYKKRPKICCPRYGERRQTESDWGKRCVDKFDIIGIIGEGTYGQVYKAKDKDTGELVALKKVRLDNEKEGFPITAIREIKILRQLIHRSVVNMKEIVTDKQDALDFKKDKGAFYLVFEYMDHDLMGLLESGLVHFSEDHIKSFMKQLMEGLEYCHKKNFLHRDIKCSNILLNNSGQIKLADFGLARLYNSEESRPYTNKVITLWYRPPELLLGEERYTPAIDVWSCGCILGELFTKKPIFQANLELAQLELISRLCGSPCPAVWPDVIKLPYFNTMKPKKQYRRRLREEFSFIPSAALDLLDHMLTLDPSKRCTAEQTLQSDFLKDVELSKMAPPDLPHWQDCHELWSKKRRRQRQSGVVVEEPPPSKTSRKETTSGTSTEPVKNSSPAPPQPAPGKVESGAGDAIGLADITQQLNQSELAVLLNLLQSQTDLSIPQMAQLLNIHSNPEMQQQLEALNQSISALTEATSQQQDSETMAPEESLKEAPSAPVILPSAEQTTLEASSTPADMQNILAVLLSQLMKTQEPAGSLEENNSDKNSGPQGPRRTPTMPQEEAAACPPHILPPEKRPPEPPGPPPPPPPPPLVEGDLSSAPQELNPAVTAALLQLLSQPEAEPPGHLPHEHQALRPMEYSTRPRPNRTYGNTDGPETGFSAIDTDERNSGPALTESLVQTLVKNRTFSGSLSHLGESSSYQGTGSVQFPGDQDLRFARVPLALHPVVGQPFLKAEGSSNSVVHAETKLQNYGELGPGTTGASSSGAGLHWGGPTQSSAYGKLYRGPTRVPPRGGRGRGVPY
Sequence of CDK12 complexed with Cyclin K (O75909 whole entry partner): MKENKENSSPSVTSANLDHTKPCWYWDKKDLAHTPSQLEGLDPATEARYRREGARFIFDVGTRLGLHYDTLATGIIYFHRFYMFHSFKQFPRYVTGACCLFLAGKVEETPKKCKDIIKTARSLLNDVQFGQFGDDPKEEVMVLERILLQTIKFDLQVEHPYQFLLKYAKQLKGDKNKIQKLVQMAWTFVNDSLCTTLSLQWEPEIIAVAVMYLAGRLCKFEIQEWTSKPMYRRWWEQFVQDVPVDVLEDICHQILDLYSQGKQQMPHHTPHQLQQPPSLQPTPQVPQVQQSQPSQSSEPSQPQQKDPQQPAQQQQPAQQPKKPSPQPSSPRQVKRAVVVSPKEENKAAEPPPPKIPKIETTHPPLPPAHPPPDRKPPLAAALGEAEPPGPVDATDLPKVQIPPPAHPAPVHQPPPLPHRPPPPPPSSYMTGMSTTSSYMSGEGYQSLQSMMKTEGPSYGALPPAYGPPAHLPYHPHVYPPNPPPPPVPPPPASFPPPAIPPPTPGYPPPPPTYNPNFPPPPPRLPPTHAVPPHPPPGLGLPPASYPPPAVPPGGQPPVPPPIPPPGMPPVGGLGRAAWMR

For the assay, the target named is CDK12 complexed with Cyclin K (Homo sapiens (Human), UniProt Q9NYV4). The experiment in a line: CDK enzymatic assay (HTRF, LANCE Ultra kinase assay). The format is biochemical. Conditions: 60 minutes pre-incubation, 1 mM ATP. The procedure, abridged:
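GST-tagged human CDK12 co-expressed with full-length Cyclin K in baculovirus, pre-incubated 60 min with compound, then 1 mM ATP and 50 nM ULight-4E-BP1 peptide (final) in pH 7.5 HEPES buffer for 60-90 min at room temperature. EDTA/Eu-anti-phospho-4E-BP1 stop; 665/620 nm HTRF ratio normalized to DMSO and no-enzyme controls, IC50 from 3- or 4-parameter fit.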
Compound `C=C(C)c1cnc2c(c1)ncn2[C@H]1CCC[C@@H](Nc2ncc(C(F)(F)F)c(-c3cnn(CC(F)F)c3)n2)C1` [Example 78, 4-(1-(2,2-Difluoroethyl)-1H-pyrazol-4-yl)-N-((1R,3S)-3-(6-(prop-1-en-2-yl)-3H-imidazo[4,5-b]pyridin-3-yl)cyclohexyl)-5-(trifluoromethyl)pyrimidin-2-amine] had an IC50 of under 50 nM.

`FC(F)Cn1cc(-c2nc(N[C@@H]3CCC[C@H](n4cnc5cc(C6CC6)cnc54)C3)ncc2C(F)(F)F)cn1` [Example 79, N-((1R,3S)-3-(6-Cyclopropyl-3H-imidazo[4,5-b]pyridin-3-yl)cyclohexyl)-4-(1-(2,2-difluoroethyl)-1H-pyrazol-4-yl)-5-(trifluoromethyl)pyrimidin-2-amine] had an IC50 of under 50 nM. Under `FC(F)Cn1cc(-c2nc(N[C@@H]3CCC[C@H](n4cnc5cc(-c6cn[nH]c6)cnc54)C3)ncc2C(F)(F)F)cn1` [Example 80, N-((1R,3S)-3-(6-(1H-Pyrazol-4-yl)-3H-imidazo[4,5-b]pyridin-3-yl)cyclohexyl)-4-(1-(2,2-difluoroethyl)-1H-pyrazol-4-yl)-5-(trifluoromethyl)pyrimidin-2-amine] stands under 50 nM. `Cn1cc(-c2cnc3c(c2)ncn3[C@H]2CCC[C@@H](Nc3ncc(C(F)(F)F)c(-c4cnn(CC(F)F)c4)n3)C2)cn1` [Example 81, 4-(1-(2,2-Difluoroethyl)-1H-pyrazol-4-yl)-N-((1R,3S)-3-(6-(1-methyl-1H-pyrazol-4-yl)-3H-imidazo[4,5-b]pyridin-3-yl)cyclohexyl)-5-(trifluoromethyl)pyrimidin-2-amine]: the IC50 is under 50 nM. The compound `FC(F)Cn1cc(-c2nc(N[C@@H]3CCC[C@H](n4cnc5cc(-c6cccnc6)cnc54)C3)ncc2C(F)(F)F)cn1` [Example 82, 4-(1-(2,2-Difluoroethyl)-1H-pyrazol-4-yl)-N-((1R,3S)-3-(6-(pyridin-3-yl)-3H-imidazo[4,5-b]pyridin-3-yl)cyclohexyl)-5-(trifluoromethyl)pyrimidin-2-amine] had an IC50 of under 50 nM. In turn, `FC(F)Cn1cc(-c2nc(N[C@@H]3CCC[C@H](n4cnc5cc(N6CCCC6)cnc54)C3)ncc2C(F)(F)F)cn1` [Example 83, 4-(1-(2,2-Difluoroethyl)-1H-pyrazol-4-yl)-N-((1R,3S)-3-(6-(pyrrolidin-1-yl)-3H-imidazo[4,5-b]pyridin-3-yl)cyclohexyl)-5-(trifluoromethyl)pyrimidin-2-amine] had a half-maximal inhibitory concentration (IC50) of under 50 nM. As for `CN(C)c1cnc2c(c1)ncn2[C@H]1CCC[C@@H](Nc2ncc(C(F)(F)F)c(-c3cnn(CC(F)F)c3)n2)C1` [Example 84, 3-((1S,3R)-3-((4-(1-(2,2-Difluoroethyl)-1H-pyrazol-4-yl)-5-(trifluoromethyl)pyrimidin-2-yl)amino)cyclohexyl)-N,N-dimethyl-3H-imidazo[4,5-b]pyridin-6-amine], the IC50 was under 50 nM. Regarding `Cc1nccc2c1ncn2[C@H]1CCC[C@@H](Nc2ncc(C#N)c(-c3cnn(CC(F)F)c3)n2)C1` [Example 85, 4-(1-(2,2-Difluoroethyl)-1H-pyrazol-4-yl)-2-(((1R,3S)-3-(4-methyl-1H-imidazo[4,5-c]pyridin-1-yl)cyclohexyl)amino)pyrimidine-5-carbonitrile], the IC50 was under 50 nM.

In turn, `N#Cc1ccc2c(c1)ncn2[C@H]1CCC[C@@H](Nc2ncc(C#N)c(-c3cnn(CC(F)F)c3)n2)C1` [Example 86, 1-((1S,3R)-3-((5-Cyano-4-(1-(2,2-difluoroethyl)-1H-pyrazol-4-yl)pyrimidin-2-yl)amino)cyclohexyl)-1H-benzo[d]imidazole-5-carbonitrile] came in with a half-maximal inhibitory concentration (IC50) of under 50 nM. Under `N#Cc1cccc2ncn([C@H]3CCC[C@@H](Nc4ncc(C(F)(F)F)c(-c5cnn(CC(F)F)c5)n4)C3)c12` [Example 87, 1-((1S,3R)-3-((4-(1-(2,2-Difluoroethyl)-1H-pyrazol-4-yl)-5-(trifluoromethyl)pyrimidin-2-yl)amino)cyclohexyl)-1H-benzo[d]imidazole-7-carbonitrile] stands under 50 nM; under `N#Cc1cc2ncn([C@H]3CCC[C@@H](Nc4ncc(C#N)c(-c5cnn(CC(F)F)c5)n4)C3)c2cn1` [Example 88, 3-((1S,3R)-3-((5-Cyano-4-(1-(2,2-difluoroethyl)-1H-pyrazol-4-yl)pyrimidin-2-yl)amino)cyclohexyl)-3H-imidazo[4,5-c]pyridine-6-carbonitrile], under 50 nM. With `Cc1c(-c2nc(N[C@@H]3CCC[C@H](n4cnc5cc(C#N)cnc54)C3)ncc2C#N)cnn1C` [Example 89, 3-((1S,3R)-3-((5-Cyano-4-(1,5-dimethyl-1H-pyrazol-4-yl)pyrimidin-2-yl)amino)cyclohexyl)-3H-imidazo[4,5-b]pyridine-6-carbonitrile], the concentration for half-maximal inhibition (IC50) is under 50 nM.
